≈ marks a conversion by molar mass, not a printed value.
Tests used:
[1] = test system: S. aureus ATCC 29213; test: MIC and MBC testing, broth microdilution; assay type: cell-based, Staphylococcus aureus; conditions: Staphylococcus aureus
Method in brief: (§1)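 Two-fold serial dilutions of compounds (DMSO stocks) in MH broth, inoculated with log-phase bacteria at 1 × 10^6 CFU/mL and incubated 18 h at 37 °C. MIC is the lowest concentration with no visible growth; triplicates. Levofloxacin positive, 0.1% DMSO negative control.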

[2] = test system: MRSA-2; test: Fluorescence microscopy assay (DAPI/PI); assay type: cell-based, Staphylococcus aureus; conditions: vancomycin 4 µg/mL; 2D 4 and 8 μg/mL; 2 h
Protocol: MRSA-2 was cultivated to the logarithmic growth phase, then washed with PBS and resuspended in PBS until the concentration of bacterial suspension reached 1 × 10^8 CFU/mL. […] Thereafter, the samples were incubated with DAPI (10 μM) and PI (10 μM) in the dark for 15 min. The bacterial cells were then subjected to observation under a fluorescence microscope. DMSO served as the negative controls.

[3] = test system: MRSA-2; test: MRSA-induced mouse skin abscess model; assay type: in vivo
Source text: The MRSA-induced mouse skin abscess model was used to assess the in vivo antibacterial effects of 2D. Female KM mice, aged 4–6 weeks and weighing 20 ± 2 g, were purchased from the Laboratory Animal Center, Lanzhou Institute of Veterinary Medicine, Chinese Academy of Agricultural Sciences. The animal experiments were approved by the Ethics Committee of Research Involving Animals of the Lanzhou Institute of Husbandry and Pharmaceutical Science of CAAS (Approval number: 2025-03) and performed in accordance with the guidelines of the Ethics Committee for Animal Experiments. Prior to the formal experiment, all mice were acclimated for 5 days. The mice were kept in a pathogen-free environment with a 12 h light/12 h dark cycle, 50% ± 10% humidity, and a temperature of 24 °C ± 2 °C. […] The depilation method employed was as follows: depilatory paste was applied to the designated area for 10 min, after which it was thoroughly washed with 0.9% saline. The mice were semi-anesthetized by intraperitoneal injection with sodium Ulatan (TCI, 20%, 100 μL). […] After a 24 h interval, the administration was repeated, and 24 h after the last administration, the volume of abscess was measured and calculated. Then, the skin of the infected site and main organs were collected for tissue bacterial load and pathological detection.

[4] = test system: E. faecium ATCC 35667; test: MIC and MBC testing, broth microdilution; assay type: cell-based, Enterococcus faecium; conditions: Enterococcus faecium
Method in brief: as §1

[5] = test system: MRSA-2 biofilm; test: Biofilm elimination assay (crystal violet); assay type: cell-based, Staphylococcus aureus; conditions: at the test concentration
Protocol: The ability of 2D to eliminate biofilm was evaluated. MRSA-2 (1 × 10^6 CFU/mL) was incubated in 96-well plates for 24 h until biofilm formation. The planktonic bacteria were discarded and washed thrice with PBS. […] According to the above method, the OD575 nm value was detected after the following steps: PBS washing, methanol fixation, crystal violet staining, and ethanol incubation.

[6] = test system: MRSA-2 biofilm; test: Biofilm formation inhibition assay (crystal violet); assay type: cell-based, Staphylococcus aureus; conditions: Staphylococcus aureus, MRSA, 24 h, read-out: inhibition rate of biofilm formation
Protocol: The effect of 2D on the biofilm formation of MRSA was evaluated. MRSA-2 was cultured in MH broth for a period of 3–5 h, after which it was diluted to a density of 1 × 10^6 CFU/mL with MH broth. […] After the removal of the suspended bacteria, the well plates were washed thrice with PBS. Then, 150 μL of methanol was added and fixed for 30 min. Subsequent to air-drying, 150 μL of a 0.1% crystal violet aqueous solution was added. Following a 15 min staining period, the excess crystal violet was removed by rinsing with flowing water. Finally, 150 μL of anhydrous ethanol was added and the mixture was incubated for 20 min. The optical density at 575 nm was detected.

[7] = test system: MRSA-2; test: Growth curve (OD600); assay type: cell-based, Staphylococcus aureus; conditions: 2D 0.5, 1, 2, 4, 8 µg/mL, vancomycin 0.5 and 1 μg/mL
Protocol: (§2) The growth inhibition and time-dependent killing abilities of 2D were evaluated against S. aureus (ATCC 29213) and MRSA-2. After culturing the strains in MH broth until the logarithmic growth phase, they were diluted with MH broth to 1 × 10^6 CFU/mL. […] OD600 values were measured at predetermined time intervals (0, 1, 2, 4, 6, 8, 10, 12, and 24 h).

[8] = test system: S. aureus (ATCC 29213); test: Growth curve (OD600); assay type: cell-based, Staphylococcus aureus; conditions: 2D 0.5, 1, 2, 4, 8 µg/mL, vancomycin 0.5 and 1 μg/mL
Protocol: as §2

[9] = test system: clinical S. aureus isolate LMY48; test: MIC and MBC testing, broth microdilution; assay type: cell-based, Staphylococcus aureus; conditions: Staphylococcus aureus
Method in brief: (§3)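 Broth microdilution in MH broth: 2-fold compound dilutions from DMSO stocks, log-phase clinical S. aureus isolates or MRSA-1 at 1 × 10^6 CFU/mL, 18 h at 37 °C, each concentration in triplicate. MIC recorded; MBC also determined.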

[10] = test system: clinical S. aureus isolate LMY47; test: MIC and MBC testing, broth microdilution; assay type: cell-based, Staphylococcus aureus; conditions: Staphylococcus aureus
Method in brief: as §3

[11] = test system: MRSA-1; test: MIC and MBC testing, broth microdilution; assay type: cell-based, Staphylococcus aureus; conditions: Staphylococcus aureus, MRSA
Method in brief: as §3

[12] = test system: MRSA-2; test: MIC and MBC testing, broth microdilution; assay type: cell-based, Staphylococcus aureus; conditions: Staphylococcus aureus, MRSA
Method in brief: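 Log-phase cultures, adjusted to 1 × 10^6 CFU/mL in MH broth, are exposed to twofold serial compound dilutions and held at 37 °C for 18 h. Triplicate per concentration; both inhibitory and bactericidal endpoints are taken.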

[13] = test system: clinical S. aureus isolate LMY46; test: MIC and MBC testing, broth microdilution; assay type: cell-based, Staphylococcus aureus; conditions: Staphylococcus aureus
Method in brief: as §3

[14] = test system: clinical S. aureus isolate LMY45; test: MIC and MBC testing, broth microdilution; assay type: cell-based, Staphylococcus aureus; conditions: Staphylococcus aureus
Method in brief: as §3

Which results are given for `CN[C@H](CC(C)C)C(=O)N[C@H]1C(=O)N[C@@H](CC(N)=O)C(=O)N[C@H]2C(=O)N[C@H]3C(=O)N[C@H](C(=O)N[C@H](C(=O)O)c4cc(O)cc(O)c4-c4cc3ccc4O)[C@H](O)c3ccc(c(Cl)c3)Oc3cc2cc(c3O[C@@H]2O[C@H](CO)[C@@H](O)[C@H](O)[C@H]2O[C@H]2C[C@](C)(N)[C@H](O)[C@H](C)O2)Oc2ccc(cc2Cl)[C@H]1O` [Vancomycin, reference compound]?
MBC ([1]; ATCC29213): 4 µg/mL (≈ 2.76 µM); MIC ([1]; ATCC29213, 18 h): 1 µg/mL (≈ 0.69 µM); PI red fluorescence (damaged membranes) [2]: a very small amount of red fluorescence; purulent lesions at the infection site (skin histopathology) ([3]; 5 mg/kg): significantly smaller; volume of skin abscess ([3]; 5 mg/kg, injected 2 h and 24 h postinfection, compared to model and solvent group): reduced volume; bacterial load of the skin at the infected site ([3]; 2D 5 and 10 mg/kg, vancomycin 5 mg/kg, compared with model and solvent group): significantly reduced; histopathology of the major organs ([3]; infected mice after treatment, H&E): no discernible lesions; MBC ([4]; ATCC35667): 16 µg/mL (≈ 11 µM); MIC ([4]; ATCC35667, 18 h): 2 µg/mL (≈ 1.38 µM); biofilm elimination [5]: unable to completely eliminate the biofilm; inhibition at 0.25 µg/mL [6]: ~18.5%; inhibition at 0.5 µg/mL [6]: ~37.8%; growth inhibition (growth curve) [7]: failed to completely inhibit the growth; growth inhibition (growth curve) [8]: failed to completely inhibit the growth; MBC [9]: 2 µg/mL (≈ 1.38 µM); MIC ([9]; 18 h): 1 µg/mL (≈ 0.69 µM); MBC [10]: 2 µg/mL (≈ 1.38 µM); MIC ([10]; 18 h): 1 µg/mL (≈ 0.69 µM); MBC [11]: 4 µg/mL (≈ 2.76 µM); MIC ([11]; 18 h): 1 µg/mL (≈ 0.69 µM); MBC [12]: 2 µg/mL (≈ 1.38 µM); MIC ([12]; 18 h): 1 µg/mL (≈ 0.69 µM); MBC [13]: 8 µg/mL (≈ 5.52 µM); MIC ([13]; 18 h): 1 µg/mL (≈ 0.69 µM); MBC [14]: 2 µg/mL (≈ 1.38 µM); MIC ([14]; 18 h): 0.5 µg/mL (≈ 0.345 µM)

Reference: paper PMC12250302, “Synthesis, Antimicrobial Activities, and Model of Action of Novel Tetralone Derivatives Containing Aminoguanidinium Moiety” (International Journal of Molecular Sciences, 2025)
